Assay results published in article PMC9632963, “Preclinical characterization and phase I clinical trial of CT053PTSA targets MET, AXL, and VEGFR2 in patients with advanced solid tumors” (Frontiers in Immunology, 2022).

System: patients with advanced solid tumors
Assay: Phase I trial: safety, tolerability, DLT, MTD (CTCAE v4.0)
Format: in vivo
Text: Eligible patients had at least one measurable lesion per RECIST v 1.1, Eastern Cooperative Oncology Group (ECOG) performance status of 0 or 1, and adequate hematological, renal, cardiac and hepatic functions. The primary objectives were to assess safety and tolerability as well as to determine the MTD, DLT, and dose recommended for further study. The secondary objectives were to assess the PK and preliminary efficacy of CT053PTSA.
An initial accelerated titration design was used in the 15 and 30 mg QD cohorts, and the “3+3” schema was used starting in the 60 mg QD cohort. […] The study protocol was approved by an institutional review board at Sun Yat-sen University Cancer Center. Written informed consent was obtained from all the patients before enrollment.
Descriptive statistics of safety are presented per CTCAE v4.0. Subjects who received at least one dose of CT053PTSA were considered eligible to be evaluated and included in safety analyses. […] According to the RECIST 1.1 criteria, imaging examinations were performed at each specified time point in the protocol. The antitumor activity was measured by RECIST1.1.

Cc1c(C(=O)Nc2ccc(Oc3ccnc4cc(OCC(C)(C)O)ccc34)c(F)c2)c(=O)n(-c2ccccc2)n1C [CT053PTSA]
3 (50) n (%): transaminase elevation, All (60mg (n = 6))
0 n (%): Anaemia, All (15mg (n = 1)) | Anaemia, ≥ G3 (15mg (n = 1)) | Blood chloride decreased, All (15mg (n = 1)) | Blood chloride decreased, ≥ G3 (15mg (n = 1)) | Blood creatinine increased, All (15mg (n = 1)) | Blood creatinine increased, ≥ G3 (15mg (n = 1)) | Blood potassium decreased, All (15mg (n = 1)) | Blood potassium decreased, ≥ G3 (15mg (n = 1)) | Blood sodium decreased, All (15mg (n = 1)) | Blood sodium decreased, ≥ G3 (15mg (n = 1)) | Blood uric acid increased, All (15mg (n = 1)) | Blood uric acid increased, ≥ G3 (15mg (n = 1)) | Decreased appetite, All (15mg (n = 1)) | Decreased appetite, ≥ G3 (15mg (n = 1)) | Diarrhea, All (15mg (n = 1)) | Diarrhea, ≥ G3 (15mg (n = 1)) | Dizziness, All (15mg (n = 1)) | Dizziness, ≥ G3 (15mg (n = 1)) | Dry mouth, All (15mg (n = 1)) | Dry mouth, ≥ G3 (15mg (n = 1)) | Electrocardiogram QT prolonged, All (15mg (n = 1)) | Electrocardiogram QT prolonged, ≥ G3 (15mg (n = 1)) | Electrolyte imbalance, All (15mg (n = 1)) | Electrolyte imbalance, ≥ G3 (15mg (n = 1)) | Hemoglobin decreased, All (15mg (n = 1)) | Hemoglobin decreased, ≥ G3 (15mg (n = 1)) | Hypertension, All (15mg (n = 1)) | Hypertension, ≥ G3 (15mg (n = 1)) | Hyponatremia, All (15mg (n = 1)) | Hyponatremia, ≥ G3 (15mg (n = 1)) | Hypoparathyroidism, All (15mg (n = 1)) | Hypoparathyroidism, ≥ G3 (15mg (n = 1)) | Mouth ulceration, All (15mg (n = 1)) | Mouth ulceration, ≥ G3 (15mg (n = 1)) | Nausea, All (15mg (n = 1)) | Nausea, ≥ G3 (15mg (n = 1)) | Oropharyngeal pain, All (15mg (n = 1)) | Oropharyngeal pain, ≥ G3 (15mg (n = 1)) | Pain, All (15mg (n = 1)) | Pain, ≥ G3 (15mg (n = 1)) | Palmar-plantar erythrodysaesthesia syndrome, All (15mg (n = 1)) | Palmar-plantar erythrodysaesthesia syndrome, ≥ G3 (15mg (n = 1)) | Platelet count decreased, All (15mg (n = 1)) | Platelet count decreased, ≥ G3 (15mg (n = 1)) | Proteinuria, All (15mg (n = 1)) | Proteinuria, ≥ G3 (15mg (n = 1)) | Pyrexia, All (15mg (n = 1)) | Pyrexia, ≥ G3 (15mg (n = 1)) | Sinus bradycardia, All (15mg (n = 1)) | Sinus bradycardia, ≥ G3 (15mg (n = 1)) | Stomatitis, All (15mg (n = 1)) | Stomatitis, ≥ G3 (15mg (n = 1)) | Vomiting, All (15mg (n = 1)) | Vomiting, ≥ G3 (15mg (n = 1)) | leukopenia, ≥ G3 (15mg (n = 1)) | neutropenia, All (15mg (n = 1)) | neutropenia, ≥ G3 (15mg (n = 1)) | transaminase elevation, ≥ G3 (15mg (n = 1)) | Anaemia, All (30mg (n = 1)) | Anaemia, ≥ G3 (30mg (n = 1)) | Blood chloride decreased, All (30mg (n = 1)) | Blood chloride decreased, ≥ G3 (30mg (n = 1)) | Blood creatinine increased, All (30mg (n = 1)) | Blood creatinine increased, ≥ G3 (30mg (n = 1)) | Blood potassium decreased, All (30mg (n = 1)) | Blood potassium decreased, ≥ G3 (30mg (n = 1)) | Blood sodium decreased, All (30mg (n = 1)) | Blood sodium decreased, ≥ G3 (30mg (n = 1)) | Blood uric acid increased, All (30mg (n = 1)) | Blood uric acid increased, ≥ G3 (30mg (n = 1)) | Decreased appetite, ≥ G3 (30mg (n = 1)) | Diarrhea, All (30mg (n = 1)) | Diarrhea, ≥ G3 (30mg (n = 1)) | Dizziness, All (30mg (n = 1)) | Dizziness, ≥ G3 (30mg (n = 1)) | Dry mouth, All (30mg (n = 1)) | Dry mouth, ≥ G3 (30mg (n = 1)) | Electrocardiogram QT prolonged, All (30mg (n = 1)) | Electrocardiogram QT prolonged, ≥ G3 (30mg (n = 1)) | Electrolyte imbalance, All (30mg (n = 1)) | Electrolyte imbalance, ≥ G3 (30mg (n = 1)) | Hemoglobin decreased, All (30mg (n = 1)) | Hemoglobin decreased, ≥ G3 (30mg (n = 1)) | Hypertension, All (30mg (n = 1)) | Hypertension, ≥ G3 (30mg (n = 1)) | Hyponatremia, ≥ G3 (30mg (n = 1)) | Hypoparathyroidism, All (30mg (n = 1)) | Hypoparathyroidism, ≥ G3 (30mg (n = 1)) | Mouth ulceration, All (30mg (n = 1)) | Mouth ulceration, ≥ G3 (30mg (n = 1)) | Nausea, All (30mg (n = 1)) | Nausea, ≥ G3 (30mg (n = 1)) | Oropharyngeal pain, All (30mg (n = 1)) | Oropharyngeal pain, ≥ G3 (30mg (n = 1)) | Pain, All (30mg (n = 1)) | Pain, ≥ G3 (30mg (n = 1)) | Palmar-plantar erythrodysaesthesia syndrome, All (30mg (n = 1)) | Palmar-plantar erythrodysaesthesia syndrome, ≥ G3 (30mg (n = 1)) | Platelet count decreased, All (30mg (n = 1)) | Platelet count decreased, ≥ G3 (30mg (n = 1)) | Proteinuria, All (30mg (n = 1)) | Proteinuria, ≥ G3 (30mg (n = 1)) | Pyrexia, All (30mg (n = 1)) | Pyrexia, ≥ G3 (30mg (n = 1)) | Sinus bradycardia, All (30mg (n = 1)) | Sinus bradycardia, ≥ G3 (30mg (n = 1)) | Stomatitis, All (30mg (n = 1)) | Stomatitis, ≥ G3 (30mg (n = 1)) | Vomiting, All (30mg (n = 1)) | Vomiting, ≥ G3 (30mg (n = 1)) | leukopenia, All (30mg (n = 1)) | leukopenia, ≥ G3 (30mg (n = 1)) | neutropenia, All (30mg (n = 1)) | neutropenia, ≥ G3 (30mg (n = 1)) | transaminase elevation, All (30mg (n = 1)) | transaminase elevation, ≥ G3 (30mg (n = 1)) | Anaemia, All (60mg (n = 6)) | Anaemia, ≥ G3 (60mg (n = 6)) | Blood chloride decreased, All (60mg (n = 6)) | Blood chloride decreased, ≥ G3 (60mg (n = 6)) | Blood creatinine increased, All (60mg (n = 6)) | Blood creatinine increased, ≥ G3 (60mg (n = 6)) | Blood potassium decreased, All (60mg (n = 6)) | Blood potassium decreased, ≥ G3 (60mg (n = 6)) | Blood sodium decreased, All (60mg (n = 6)) | Blood sodium decreased, ≥ G3 (60mg (n = 6)) | Blood uric acid increased, All (60mg (n = 6)) | Blood uric acid increased, ≥ G3 (60mg (n = 6)) | Decreased appetite, All (60mg (n = 6)) | Decreased appetite, ≥ G3 (60mg (n = 6)) | Diarrhea, All (60mg (n = 6)) | Diarrhea, ≥ G3 (60mg (n = 6)) | Dizziness, All (60mg (n = 6)) | Dizziness, ≥ G3 (60mg (n = 6)) | Dry mouth, All (60mg (n = 6)) | Dry mouth, ≥ G3 (60mg (n = 6)) | Electrocardiogram QT prolonged, ≥ G3 (60mg (n = 6)) | Electrolyte imbalance, All (60mg (n = 6)) | Electrolyte imbalance, ≥ G3 (60mg (n = 6)) | Hemoglobin decreased, All (60mg (n = 6)) | Hemoglobin decreased, ≥ G3 (60mg (n = 6)) | Hypertension, All (60mg (n = 6)) | Hypertension, ≥ G3 (60mg (n = 6)) | Hyponatremia, All (60mg (n = 6)) | Hyponatremia, ≥ G3 (60mg (n = 6)) | Hypoparathyroidism, All (60mg (n = 6)) | Hypoparathyroidism, ≥ G3 (60mg (n = 6)) | Mouth ulceration, All (60mg (n = 6)) | Mouth ulceration, ≥ G3 (60mg (n = 6)) | Nausea, All (60mg (n = 6)) | Nausea, ≥ G3 (60mg (n = 6)) | Oropharyngeal pain, All (60mg (n = 6)) | Oropharyngeal pain, ≥ G3 (60mg (n = 6)) | Pain, All (60mg (n = 6)) | Pain, ≥ G3 (60mg (n = 6)) | Palmar-plantar erythrodysaesthesia syndrome, All (60mg (n = 6)) | Palmar-plantar erythrodysaesthesia syndrome, ≥ G3 (60mg (n = 6)) | Platelet count decreased, ≥ G3 (60mg (n = 6)) | Proteinuria, All (60mg (n = 6)) | Proteinuria, ≥ G3 (60mg (n = 6)) | Pyrexia, All (60mg (n = 6)) | Pyrexia, ≥ G3 (60mg (n = 6)) | Sinus bradycardia, All (60mg (n = 6)) | Sinus bradycardia, ≥ G3 (60mg (n = 6)) | Stomatitis, All (60mg (n = 6)) | Stomatitis, ≥ G3 (60mg (n = 6)) | Vomiting, All (60mg (n = 6)) | Vomiting, ≥ G3 (60mg (n = 6)) | leukopenia, ≥ G3 (60mg (n = 6)) | neutropenia, ≥ G3 (60mg (n = 6)) | transaminase elevation, ≥ G3 (60mg (n = 6)) | Anaemia, ≥ G3 (100mg (n = 7)) | Blood chloride decreased, ≥ G3 (100mg (n = 7)) | Blood creatinine increased, All (100mg (n = 7)) | Blood creatinine increased, ≥ G3 (100mg (n = 7)) | Blood potassium decreased, All (100mg (n = 7)) | Blood potassium decreased, ≥ G3 (100mg (n = 7)) | Blood sodium decreased, All (100mg (n = 7))
1 (14.3) n (%): Anaemia, All (100mg (n = 7)) | Blood chloride decreased, All (100mg (n = 7))
1 (16.7) n (%): Electrocardiogram QT prolonged, All (60mg (n = 6)) | Platelet count decreased, All (60mg (n = 6)) | leukopenia, All (60mg (n = 6)) | neutropenia, All (60mg (n = 6))
1 (100) n (%): leukopenia, All (15mg (n = 1)) | transaminase elevation, All (15mg (n = 1)) | Decreased appetite, All (30mg (n = 1)) | Hyponatremia, All (30mg (n = 1))
